Among the data in PubChem BioAssay (NCI) are TGI values, retold here.

Some test systems named below: SF-268 CNS; NCI-H460 lung; BT-549 breast; COLO 205 colon; HL-60(TB) leukemia; HCC-2998 colon; SF-539 CNS; RXF 393 renal; CAKI-1 renal; CCRF-CEM leukemia.
Experiment in all cases: NCI anticancer screen, dose series, 48 h

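Method: 48-hour compound exposure of cells in 96-well plates, five concentrations, linear interpolation of endpoints. TGI: concentration producing complete growth inhibition.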

As to `CC[C@@]1(O)C(=O)OCc2c1cc1n(c2=O)Cc2c-1nc1ccccc1c2/C=N\NC(=O)CN`, the TGI was 16.7 µM with SF-268 CNS; 4.66 µM with NCI-H460 lung; above 95.4 µM in the test with BT-549 breast; above 100 µM with COLO 205 colon; above 100 µM in the test on HL-60(TB) leukemia; above 47.4 µM with HCC-2998 colon. The TGI was found to be 0.127 µM with SF-539 CNS and 7.66 µM in the test with RXF 393 renal.

As to `COC(=O)c1cc2c(n1S(=O)(=O)c1ccc(C)cc1)C(=O)C(=O)c1[nH]cc(C(=O)OCc3ccccc3)c1-2`, the TGI with SF-268 CNS came out at 1.24 µM; with NCI-H460 lung it was 2.83 µM; with CAKI-1 renal, 1.28 µM; with BT-549 breast, 0.334 µM; with COLO 205 colon it was 0.433 µM; with CCRF-CEM leukemia, 1.05 µM. Further, the results for the TGI in the test on HCC-2998 colon, with SF-539 CNS and in the test on RXF 393 renal were 0.634 µM, 0.311 µM and 0.824 µM, respectively.

As for `CC[C@@]1(C[C@H]2C[C@@]3(C(=O)OC)c4[nH]c5ccccc5c4CCN3C2=O)COC2(CCCCC2)O1`, the TGI in the test on SF-268 CNS, with NCI-H460 lung, with CAKI-1 renal, in the test on BT-549 breast, with COLO 205 colon and in the test on HL-60(TB) leukemia was above 100 µM throughout. Moreover, the TGI is 62.1 µM with HCC-2998 colon, above 100 µM with SF-539 CNS and above 100 µM in the test on RXF 393 renal.

Regarding `C=C(C1=CC(=O)C(C)(C)O1)[C@@H]1CC=C([C@@H]2CC[C@H]3[C@@]2(C)CC[C@H]2C(C)(C)C(=O)[C@H](O)C[C@]32C)[C@H](O)O1`, the TGI in the test with SF-268 CNS turned out to be 3.76 µM; in the test on NCI-H460 lung it was 31.6 µM; in the test with CAKI-1 renal, 14.2 µM; in the test with BT-549 breast, 21.6 µM; in the test with COLO 205 colon it was 3.51 µM; in the test with HL-60(TB) leukemia, 8.11 µM. Moreover, the figures for the TGI in the test on HCC-2998 colon, in the test on SF-539 CNS and with RXF 393 renal were 7.49 µM, 2.73 µM and 3.59 µM, respectively.

With `Cc1cn(C2CC(n3cc(Cn4cc(I)c(=O)[nH]c4=O)nn3)C(CO)O2)c(=O)[nH]c1=O` (stereo not drawn), the TGI with SF-268 CNS, in the test on CAKI-1 renal, in the test with BT-549 breast, with COLO 205 colon, in the test on CCRF-CEM leukemia and with HCC-2998 colon was above 100 µM each time. Moreover, the TGI in the test on SF-539 CNS and in the test on RXF 393 renal was above 100 µM each time.

Take `CCOC(=O)Nn1c(C)nnc1-c1ccccc1`: the TGI in the test with SF-268 CNS, with NCI-H460 lung, in the test on CAKI-1 renal, in the test on BT-549 breast, with COLO 205 colon and with CCRF-CEM leukemia was above 100 µM each time. In addition, the TGI in the test on HCC-2998 colon, in the test with SF-539 CNS and in the test with RXF 393 renal was above 100 µM throughout.

In the case of `CC(C)/C(Cl)=N\OC(=O)Nc1ccc(S(N)(=O)=O)cc1`, the TGI is 51.7 µM in the test with SF-268 CNS; 41.6 µM in the test with NCI-H460 lung; 31.1 µM in the test with CAKI-1 renal; 21.3 µM in the test with BT-549 breast; 3.92 µM with COLO 205 colon; 6.49 µM in the test on CCRF-CEM leukemia. Moreover, the TGI with HCC-2998 colon is 32.7 µM; with SF-539 CNS, 31.5 µM; in the test with RXF 393 renal, 25.2 µM.

For `FC(F)(F)c1cc(Cl)cnc1N/N=C(/c1ccccc1)c1ccccn1`, the TGI in the test on SF-268 CNS was 11.3 µM; in the test with NCI-H460 lung, 15 µM; in the test with CAKI-1 renal, 22.7 µM; in the test with BT-549 breast, 36.4 µM; in the test on COLO 205 colon, above 100 µM; with CCRF-CEM leukemia, 4.85 µM. For the same molecule, the figures for the TGI with HCC-2998 colon, in the test with SF-539 CNS and with RXF 393 renal were above 100 µM, 12.9 µM and 40.9 µM, respectively.

With `c1ccc(N=C2SC3=Nc4cccc5cccc(c45)N3C2=Nc2ccccc2)cc1`, the TGI in the test with NCI-H460 lung, in the test on CAKI-1 renal, in the test on BT-549 breast, with COLO 205 colon, in the test with HL-60(TB) leukemia and in the test with CCRF-CEM leukemia was above 100 µM throughout. The TGI in the test on HCC-2998 colon and with RXF 393 renal was above 100 µM in each case.

With `COC(=O)[C@H]1CO[C@@H](C(C)(C)C)N1C(=O)N1C=CC(=O)C[C@@H]1C`, the TGI in the test on SF-268 CNS, in the test on CAKI-1 renal, in the test with BT-549 breast, with COLO 205 colon, in the test on HL-60(TB) leukemia and with CCRF-CEM leukemia was above 100 µM each time. In the test with RXF 393 renal, the TGI was above 100 µM.

On to `Clc1ccc(/C=C/c2nc3ccccc3s2)cc1Cl`, for which the TGI in the test on SF-268 CNS is above 100 µM; with NCI-H460 lung, above 100 µM; in the test on CAKI-1 renal, 48.6 µM; with BT-549 breast, above 100 µM; in the test on COLO 205 colon, above 100 µM; in the test with HL-60(TB) leukemia, above 100 µM. Besides, the TGI in the test on CCRF-CEM leukemia, in the test on HCC-2998 colon and in the test with SF-539 CNS was above 100 µM in each case.

As to `COc1cc(/C=C2\S/C(=N/Nc3nc(-c4ccc(Br)cc4)cs3)NC2=O)cc(OC)c1OC`, the TGI is above 100 µM in the test with SF-268 CNS; 37.4 µM with NCI-H460 lung; 46.6 µM in the test with CAKI-1 renal; 33.8 µM with BT-549 breast; 71.3 µM in the test with COLO 205 colon; 10.3 µM in the test on CCRF-CEM leukemia. The figures for the TGI with HCC-2998 colon, in the test on SF-539 CNS and in the test on RXF 393 renal were 32.5 µM, 29.1 µM and 19.4 µM, respectively.
